From US20260217701A1, “SELECTIVE BET INHIBITORS AND USES THEREOF” (Tay Therapeutics Limited, priority 2022, published 2026)
Where “and” joins values, the source holds several entries; their conditions need not be identical. Equal entries are not always repeated. Where two headings read alike, the source gives them in different places.

Assay: Rat PK study #4 (Compound A PO 0.2 and 1.0 mg/kg, propylene glycol formulation)
Type: in vivo, Lewis rats
Details: propylene glycol-based formulation; for Plasma Concentration / concentration at 0.25 h / concentration at 0.5 h / concentration at 1 h / concentration at 2 h / concentration at 4 h / concentration at 6 h / concentration at 8 h / concentration at 24 h: Lewis rats; for MRT inf: read-out: MRTInf_obs
Procedure: For the fourth rat pharmacokinetic study, the pharmacokinetics of Compound A were assessed in male Lewis rats. Compound A was prepared in two different doses (0.2 mg/kg and 1.0 mg/kg) formulated in 20% propylene glycol/20% Vitamin E TPGS/60% water (see Table 1A for formulations). Animals were divided into two groups based on the compound formulation (n=3/group). The Compound A solutions were administered to animals orally (PO) and animals were then monitored over a 24 h period.
Blood samples (~0.2 mL) were collected according to a schedule (0.25, 0.5, 1, 2, 4, 6, 8, and 24 h following the initial dosing) by jugular vein by cannulation and EDTA-K2 was used as anticoagulant. Within 30 minutes of collection, the samples were centrifuged at approximately 4000 times g-force for 5 minutes at 4° C. to obtain blood plasma. The plasma samples were immediately divided into two aliquots (~75 μL each), transferred to a cryogenic vial, and stored in a freezer at −75±15° C. prior to analysis.
The concentration of Compound A in plasma samples was determined by liquid chromatography-mass spectrometry (LC-MS/MS) using a Shimadzu HPLC (DGU-20A5R; LC-30AD; SIL-30AC; Rack changer II; CTO-30A; and CBM-20A) and an AB API 5500+LC/MS/MS instrument. Samples were analyzed on an Agilent Poroshell 120 EC-C18 4 μm (50×2.1 mm) column. Solution A in the mobile phase was 95% water (0.1% formic acid) and solution B was 95% acetonitrile in water (0.1% formic acid), injection volume was 10 μL, and flow rate was 0.6 mL/min.
To prepare samples for analysis, serial concentrations were prepared by diluting the stock solution of analyte with a 50% acetonitrile in water solution. 5 μL working solutions (5, 10, 20, 50, 100, 500, 1000, 5000, and 10000 ng/ml) were added to 50 μL of the blank Lewis rat plasma to achieve calibration standards of ~0.5 to 1000 ng/ml (0.5, 1, 2, 5, 10, 50, 100, 500, and 1000 ng/ml) in a total volume of 55 μL. Five quality control samples at 1 ng/ml, 2 ng/ml, 5 ng/ml, 50 ng/ml, and 800 ng/ml for plasma were prepared independently of those used for the calibration curves. These QC samples were prepared on the day of analysis in the same way as calibration standards.
55 μL of standards, 55 μL of QC samples and 55 μL of unknown samples (50 μL of unknown rat plasma with 5 µL of blank solution) were added to 200 μL of acetonitrile containing IS mixture (verapamil) for precipitating protein respectively. The samples were then vortexed for 30 s. After centrifugation at 4° C., 3900 rpm for 15 min, the supernatant was diluted 3 times with water. 10 μL of diluted supernatant was injected into the LC/MS/MS system for quantitative analysis.

[1] = 0.2 mg/kg PO, individual animals
[2] = male, Lewis, rat, plasma, po, 0.2 mg/kg, 0.2 mg/kg PO, individual animals
[3] = male, Lewis, rat, plasma, po, 0.2 mg/kg, 0.2 mg/kg PO, mean
[4] = male, Lewis, rat, plasma, po, 1 mg/kg, 1 mg/kg PO, individual animals
[5] = male, Lewis, rat, plasma, po, 1 mg/kg, 1 mg/kg PO, mean

## Cn1cc(-c2ccccc2)c(-c2cn(C)c(=O)c3[nH]c(-c4cnn(C(F)(F)F)c4)cc23)cc1=O [Compound A, 6-methyl-4-(1-methyl-2-oxo-5-phenyl-1,2-dihydropyridin-4-yl)-2-(1-(trifluoromethyl)-1H-pyrazol-4-yl)-1,6-dihydro-7H-pyrrolo[2,3-c]pyridin-7-one]
[1]
  AUCInf: 82.0 ng·h/mL and 51.1 ng·h/mL and 103 ng·h/mL
  AUC_%Extrap_obs: 7.28% and 43.9% and 3.68%
  AUClast: 76.0 ng·h/mL and 28.7 ng·h/mL and 99.1 ng·h/mL
  AUClast/D: 380 (ng · h/mL)/(mg/kg) and 143 (ng · h/mL)/(mg/kg) and 496 (ng · h/mL)/(mg/kg)
  Cmax: 5.29 ng/mL and 8.20 ng/mL
  MRTInf_obs: 9.52 h and 7.69 h
  T1/2: 6.09 h and 4.94 h
0.2 mg/kg PO, mean
  AUC_%Extrap_obs: 18.3%
  AUClast/D: 340 (ng · h/mL)/(mg/kg)
1 mg/kg PO, individual animals
  AUCInf: 454 ng·h/mL and 217 ng·h/mL
  AUC_%Extrap_obs: 3.74% and 14.6%
  AUClast: 437 ng·h/mL and 185 ng·h/mL and 447 ng·h/mL
  AUClast/D: 437 (ng · h/mL)/(mg/kg) and 185 (ng · h/mL)/(mg/kg) and 447 (ng · h/mL)/(mg/kg)
  Cmax: 47.5 ng/mL and 23.3 ng/mL and 44.9 ng/mL
  MRTInf_obs: 11.4 h
  T1/2: 9.35 h
1 mg/kg PO, mean
  AUC_%Extrap_obs: 9.2%
  AUClast/D: 356 (ng · h/mL)/(mg/kg)
0.2 and 1 mg/kg PO
  clinical symptoms: no abnormal clinical symptoms observed
PO 1 mg/kg, 0.25 h, individual animals, 1 mg/kg
  Plasma Concentration: 6.05 ng/mL and 2.36 ng/mL and 5.82 ng/mL
PO 1 mg/kg, 0.5 h, individual animals, 1 mg/kg
  Plasma Concentration: 19.1 ng/mL
PO 1 mg/kg, 2 h, individual animals, 1 mg/kg
  Plasma Concentration: 47.5 ng/mL and 23.3 ng/mL and 44.9 ng/mL
PO 1 mg/kg, 4 h, individual animals, 1 mg/kg
  Plasma Concentration: 37.4 ng/mL and 15.0 ng/mL and 27.5 ng/mL
PO 1 mg/kg, 6 h, individual animals, 1 mg/kg
  Plasma Concentration: 25.4 ng/mL and 9.27 ng/mL and 16.5 ng/mL
PO 1 mg/kg, 8 h, individual animals, 1 mg/kg
  Plasma Concentration: 20.4 ng/mL and 7.30 ng/mL and 11.6 ng/mL
PO 1 mg/kg, 24 h, individual animals, 1 mg/kg
  Plasma Concentration: 2.29 ng/mL and 2.35 ng/mL and 19.1 ng/mL
[2]
  Tmax: 2 h
  half-life: 6.51 h
  MRT inf: 8.72 h
male, Lewis, rat, plasma, po, 0.2 mg/kg, 0.2 mg/kg PO, individual animals, read-out: Cmax
  Cmax: 7.99 ng/mL
[3]
  AUC(0-inf): 79 ng·h/mL
  AUC(0-t): 67.9 ng·h/mL
  Tmax: 2.67 h
  half-life: 5.85 h
  MRT inf: 8.65 h
male, Lewis, rat, plasma, po, 0.2 mg/kg, 0.2 mg/kg PO, mean, read-out: Cmax
  Cmax: 7.16 ng/mL
male, Lewis, rat, plasma, po, 0.2 mg/kg, PO 0.2 mg/kg, 0.25 h, mean of 3 animals
  concentration at 0.25 h: 0.34 ng/mL
male, Lewis, rat, plasma, po, 0.2 mg/kg, PO 0.2 mg/kg, 0.5 h, individual animals
  concentration at 0.5 h: 2.31 ng/mL
male, Lewis, rat, plasma, po, 0.2 mg/kg, PO 0.2 mg/kg, 0.5 h, mean of 3 animals
  concentration at 0.5 h: 1.77 ng/mL
male, Lewis, rat, plasma, po, 0.2 mg/kg, PO 0.2 mg/kg, individual animals
  concentration at 1 h: 5.24 ng/mL
male, Lewis, rat, plasma, po, 0.2 mg/kg, PO 0.2 mg/kg, mean of 3 animals
  concentration at 1 h: 4.51 ng/mL
male, Lewis, rat, plasma, po, 0.2 mg/kg, PO 0.2 mg/kg, 2 h, individual animals
  concentration at 2 h: 7.99 ng/mL
male, Lewis, rat, plasma, po, 0.2 mg/kg, PO 0.2 mg/kg, 2 h, mean of 3 animals
  concentration at 2 h: 7.09 ng/mL
male, Lewis, rat, plasma, po, 0.2 mg/kg, PO 0.2 mg/kg, 4 h, mean of 3 animals
  concentration at 4 h: 6.11 ng/mL
male, Lewis, rat, plasma, po, 0.2 mg/kg, PO 0.2 mg/kg, 6 h, individual animals
  concentration at 6 h: 4.13 ng/mL
male, Lewis, rat, plasma, po, 0.2 mg/kg, PO 0.2 mg/kg, 6 h, mean of 3 animals
  concentration at 6 h: 4.48 ng/mL
male, Lewis, rat, plasma, po, 0.2 mg/kg, PO 0.2 mg/kg, 8 h, mean of 3 animals
  concentration at 8 h: 3.96 ng/mL
male, Lewis, rat, plasma, po, 0.2 mg/kg, PO 0.2 mg/kg, 24 h, mean of 3 animals
  concentration at 24 h: 0.389 ng/mL
[4]
  Tmax: 2 h
  half-life: 5.14 h
  MRT inf: 7.1 h
[5]
  AUC(0-inf): 335 ng·h/mL
  AUC(0-t): 356 ng·h/mL
  Tmax: 2 h
  half-life: 7.24 h
  MRT inf: 9.3 h
male, Lewis, rat, plasma, po, 1 mg/kg, 1 mg/kg PO, mean, read-out: Cmax
  Cmax: 38.6 ng/mL
male, Lewis, rat, plasma, po, 1 mg/kg, PO 1 mg/kg, 0.25 h, mean of 3 animals
  concentration at 0.25 h: 4.74 ng/mL
male, Lewis, rat, plasma, po, 1 mg/kg, PO 1 mg/kg, 0.5 h, mean of 3 animals
  concentration at 0.5 h: 15.2 ng/mL
male, Lewis, rat, plasma, po, 1 mg/kg, PO 1 mg/kg, mean of 3 animals
  concentration at 1 h: 30.4 ng/mL
male, Lewis, rat, plasma, po, 1 mg/kg, PO 1 mg/kg, 2 h, mean of 3 animals
  concentration at 2 h: 38.6 ng/mL
male, Lewis, rat, plasma, po, 1 mg/kg, PO 1 mg/kg, 4 h, mean of 3 animals
  concentration at 4 h: 26.6 ng/mL
male, Lewis, rat, plasma, po, 1 mg/kg, PO 1 mg/kg, 6 h, mean of 3 animals
  concentration at 6 h: 17.1 ng/mL
male, Lewis, rat, plasma, po, 1 mg/kg, PO 1 mg/kg, 8 h, mean of 3 animals
  concentration at 8 h: 13.1 ng/mL
male, Lewis, rat, plasma, po, 1 mg/kg, PO 1 mg/kg, 24 h, mean of 3 animals
  concentration at 24 h: 7.9 ng/mL
